Assay results as given in the supplement of paper PMC8671470.
± gives the standard deviation of the averaged measurements.

What was measured:
Details in all cases: 72 h
MV4-11 [1] = experiment: cell viability (% survival relative to DMSO control, bortezomib = 0%); higher = less cytotoxic
Method in brief: (§1)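 Fifteen myeloid leukaemia cell lines were exposed to compounds at 1, 10, 100, 1000 or 10000 nM in 384-well plates for 72 h at 37 °C and 5% CO2. Viability was read by CellTiter-Glo luminescence and normalised, with vehicle as 100% and a 10 µM positive control as 0%. Values are percent survival averaged over duplicates.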

K-562 [2] = experiment: as above
Method in brief: as §1

Mono-Mac-6 [3] = experiment: as above
Method in brief: as §1

SHI-1 = experiment: as above
Method in brief: as §1

THP-1 = experiment: as above
Method in brief: as §1

BV-173 = experiment: as above
Method in brief: as §1

NOMO-1 [4] = experiment: as above
Method in brief: as §1

HEL = experiment: as above
Method in brief: as §1

MOLM-13 = experiment: as above
Method in brief: as §1

ML-2 = experiment: as above
Method in brief: as §1

HL-60 [5] = experiment: as above
Method in brief: as §1

KU-812 [6] = experiment: as above
Method in brief: as §1

LAMA-84 = experiment: as above
Method in brief: as §1

KG-1 = experiment: as above
Method in brief: as §1

KCL-22 = experiment: as above
Method in brief: as §1

MV4-11 [7] = tested on: MV4-11
Method in brief: (§2)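 The IC50 was read from log-logistic dose–response fits. Fifteen myeloid leukaemia lines were exposed for 72 h at 37 °C with 5% CO2 to five tenfold doses from 1 to 10,000 nM in duplicate. ATP luminescence, normalised to vehicle and to a 10 µM positive control, was fitted with four parameters.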

K-562 [8] = tested on: K-562
Method in brief: as §2

Mono-Mac-6 [9] = tested on: Mono-Mac-6
Method in brief: as §2

NOMO-1 [10] = tested on: NOMO-1
Method in brief: as §2

KU-812 [11] = tested on: KU-812
Method in brief: as §2

HL-60 [12] = experiment: cell viability (% survival relative to DMSO control); higher = less cytotoxic
Method in brief: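 HL-60 cells in RPMI 1640 with 10% FBS were rescreened against the full library on 384-well plates at five tenfold concentrations, 1–10,000 nM, in duplicate. Each screen was run with DMSO or 100 nM of one of three metabolic inhibitors, for 72 h at 37 °C, 5% CO2. Viability was read by CellTiter-Glo and normalised to DMSO and 10 μM proteasome-inhibitor wells. Where given, area under the curve came from four-parameter log-logistic fits (drc, PharmacoGx).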

O=c1cc(-c2ccccc2)oc2cc(O)c(O)c(O)c12 [Baicalein]
cell viability [%]
Details | 1 nM | 10 nM | 100 nM | 1000 nM | 10000 nM
BV-173 | 100 | 99.5 | 96.2 | 154 | 64.2
HEL | 108 | 88.2 | 109 | 137 | 75.4
HL-60 [5] | 110 | 86.7 | 114 | 85.3 | 43
K-562 [2] | 104 | 104 | 102 | 108 | 45.6
KCL-22 | 95 | 70.2 | 113 | 102 | 49.3
KG-1 | 96.9 | 96.7 | 112 | 87.8 | 51
KU-812 [6] | 93.5 | 94.1 | 99.4 | 108 | 61.4
LAMA-84 | 98.2 | 99.6 | 94.4 | 104 | 75
ML-2 | 98.9 | 93.2 | 87.5 | 97.9 | 37.7
MOLM-13 | 97.4 | 72 | 132 | 92.1 | 69.3
MV4-11 [1] | 97.8 | 102 | 98.7 | 113 | 54
Mono-Mac-6 [3] | 103 | 102 | 99.2 | 117 | 75.4
NOMO-1 [4] | 99.2 | 91.3 | 104 | 123 | 98.2
SHI-1 | 109 | 92 | 126 | 97.2 | 82.8
THP-1 | 99.4 | 95.6 | 93.5 | 92.5 | 85.9

Details | IC50 (cell viability) [µM]
K-562 [8] | 9.24
KU-812 [11] | > 10
MV4-11 [7] | > 10
Mono-Mac-6 [9] | > 10
NOMO-1 [10] | > 10

cell viability [%], HL-60 [12]
Details | 0.001 µM | 0.01 µM | 0.1 µM | 1 µM | 10 µM
co-treatment: AZD3965 100 nM | 99.72 ± 0.59 | 100 ± 5.5 | 103 ± 4.9 | 97.6 ± 1.2 | 101.4 ± 0.93
co-treatment: DMSO vehicle | 102.7 ± 0.15 | 102 ± 1.9 | 101 ± 4.4 | 98.895 ± 0.092 | 102 ± 7.6
co-treatment: GSK2194069 100 nM | 97.26 ± 0.92 | 102 ± 2.2 | 93.5 ± 4.6 | 98.1 ± 5.9 | 99.8 ± 4
co-treatment: pictilisib 100 nM | 99.21 ± 0.82 | 106 ± 2.4 | 98.9 ± 2.1 | 106 ± 1.5 | 89.5 ± 7.1

O=C(O)C(=O)CBr [3-bromopyruvic acid]
cell viability [%]
Details | 1 nM | 10 nM | 100 nM | 1000 nM | 10000 nM
BV-173 | 107 | 85.9 | 99 | 91.7 | 99.7
HEL | 90 | 83.1 | 92.2 | 96.2 | 112
HL-60 [5] | 89.4 | 109 | 103 | 87.3 | 167
K-562 [2] | 91.3 | 97.6 | 92.3 | 103 | 106
KCL-22 | 99.6 | 75.3 | 91.7 | 93.1 | 106
KG-1 | 94.9 | 93.3 | 111 | 96 | 106
KU-812 [6] | 88 | 88.9 | 99.8 | 97.6 | 105
LAMA-84 | 90.8 | 101 | 99.5 | 99.4 | 98
ML-2 | 91 | 78.4 | 102 | 102 | 99.4
MOLM-13 | 95 | 97.4 | 89.2 | 93.8 | 122
MV4-11 [1] | 93.7 | 94.7 | 88.4 | 101 | 99.8
Mono-Mac-6 [3] | 96.3 | 93 | 93.2 | 105 | 94.3
NOMO-1 [4] | 93.3 | 95 | 101 | 98.1 | 98
SHI-1 | 98.8 | 98.3 | 117 | 99.6 | 110
THP-1 | 106 | 85 | 105 | 93.4 | 107

Details | IC50 (cell viability) [µM]
K-562 [8] | > 10
KU-812 [11] | > 10
MV4-11 [7] | > 10
Mono-Mac-6 [9] | > 10
NOMO-1 [10] | > 10

cell viability [%], HL-60 [12]
Details | 0.001 µM | 0.01 µM | 0.1 µM | 1 µM | 10 µM
co-treatment: AZD3965 100 nM | 99.1 ± 3.7 | 101 ± 3.3 | 99.2 ± 2.7 | 98.3 ± 2.4 | 95.8 ± 3.9
co-treatment: DMSO vehicle | 99.1 ± 2 | 99.308 ± 0.03 | 97.7 ± 1.7 | 99.6 ± 2.4 | 98 ± 1.7
co-treatment: GSK2194069 100 nM | 97.451 ± 0.0089 | 96.2 ± 15 | 98.9 ± 3.1 | 103 ± 4 | 98.5 ± 5.4
co-treatment: pictilisib 100 nM | 112 ± 3.5 | 93.8 ± 6.9 | 92.943 ± 0.068 | 97.2 ± 8.2 | 96.5 ± 13

CCCCCCCCCCCC(=O)c1c(O)c(C(=O)CCCCCCCCCCC)c(O)c(C2CC(c3ccc(O)cc3)Oc3cc(O)ccc32)c1O (stereo not given)
cell viability [%]
Details | 1 nM | 10 nM | 100 nM | 1000 nM | 10000 nM
BV-173 | 119 | 114 | 102 | 101 | 89
HEL | 108 | 97.8 | 115 | 110 | 87
HL-60 [5] | 118 | 119 | 70.4 | 105 | 114
K-562 [2] | 97.9 | 91.5 | 99.4 | 117 | 108
KCL-22 | 107 | 113 | 115 | 123 | 102
KG-1 | 101 | 117 | 128 | 101 | 81.8
KU-812 [6] | 102 | 104 | 110 | 102 | 105
LAMA-84 | 105 | 99.9 | 114 | 103 | 99.1
ML-2 | 105 | 114 | 118 | 116 | 104
MOLM-13 | 101 | 119 | 89.5 | 99.1 | 82.9
MV4-11 [1] | 95.9 | 115 | 101 | 98.5 | 90.1
Mono-Mac-6 [3] | 86.1 | 112 | 106 | 103 | 91.6
NOMO-1 [4] | 108 | 118 | 110 | 111 | 96.7
SHI-1 | 95.1 | 111 | 102 | 112 | 104
THP-1 | 101 | 114 | 107 | 104 | 102

Details | IC50 (cell viability) [µM]
K-562 [8] | > 10
KU-812 [11] | > 10
MV4-11 [7] | > 10
Mono-Mac-6 [9] | > 10
NOMO-1 [10] | > 10

cell viability [%], HL-60 [12]
Details | 0.001 µM | 0.01 µM | 0.1 µM | 1 µM | 10 µM
co-treatment: AZD3965 100 nM | 95.8 ± 4.7 | 104 ± 2.3 | 97.5 ± 3.7 | 107 ± 11 | 101 ± 3.6
co-treatment: DMSO vehicle | 99.8 ± 5.4 | 98.29 ± 0.34 | 99.11 ± 0.51 | 102.2 ± 0.57 | 104.7 ± 0.063
co-treatment: GSK2194069 100 nM | 101 ± 3.5 | 96.5 ± 1.7 | 101 ± 3.1 | 104 ± 11 | 100 ± 3.4
co-treatment: pictilisib 100 nM | 107 ± 18 | 107 ± 1.4 | 99.9 ± 7.8 | 101 ± 3.3 | 95.4 ± 10
